Values quoted from earlier work as cited in patent publication CN110302150A, “甲硫氨酸维生素b1注射液及其的制备方法” (Chengdu Cacumen Et Folium Clerodendri Mandarinori …, priority 2019, dated 2019).
Like-named read-outs stand apart in the source and are kept apart here.

| SMILES | stability (during production and storage) | stability (high temperature and pH>4) |
| --- | --- | --- |
| CSCCC(N)C(=O)O (stereo not drawn) [甲硫氨酸] | 不稳定,较易降解 |  |
| Cc1ncc(C[n+]2csc(CCO)c2C)c(N)n1 [维生素B1] | 不稳定,较易降解 | 不稳定 |
